Experimental data: article PMC7386655, “Spontaneous mutations that confer resistance to 2-deoxyglucose act through Hxk2 and Snf1 pathways to regulate gene expression and HXT endocytosis” (PLoS Genetics, 2020)

Molecular target: T1, Hxk2 (Saccharomyces cerevisiae, UniProt P04807)
T1 construct: expressed from low-copy plasmid in hxk1Δ hxk2Δ glk1Δ yeast; whole cell extract; probably C-terminal 3xV5 tag
T1 sequence (P04807 2-486): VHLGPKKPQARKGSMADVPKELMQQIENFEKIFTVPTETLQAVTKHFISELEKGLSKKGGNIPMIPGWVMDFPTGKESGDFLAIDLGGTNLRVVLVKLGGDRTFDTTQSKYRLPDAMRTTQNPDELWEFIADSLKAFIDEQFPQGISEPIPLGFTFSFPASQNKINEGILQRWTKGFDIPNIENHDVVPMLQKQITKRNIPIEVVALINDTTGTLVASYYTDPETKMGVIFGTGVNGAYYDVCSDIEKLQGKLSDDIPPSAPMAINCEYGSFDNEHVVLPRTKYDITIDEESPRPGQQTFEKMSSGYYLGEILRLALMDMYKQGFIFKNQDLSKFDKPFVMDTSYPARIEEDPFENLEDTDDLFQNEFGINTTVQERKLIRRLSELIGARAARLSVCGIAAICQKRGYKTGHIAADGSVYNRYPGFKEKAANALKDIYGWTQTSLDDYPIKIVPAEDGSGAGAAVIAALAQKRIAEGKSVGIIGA
Assay: G6PDH-coupled NADPH absorbance at […] nm, double reciprocal plot
Format: biochemical
Conditions: read-out: Km Glucose; 1 mM ATP, 10 mM MgCl2, pH 7.4; whole cell extract

Km: 190 µM
SMILES: OC[C@H]1OC(O)[C@H](O)[C@@H](O)[C@@H]1O (stereo partly shown) [glucose]
